On to `Cc1cccc(C)c1C`, for which the logP was 3.78.

Consider `CCc1ccc(C)cc1`, for which the logP is 4.

`Cc1ccc(C)c(C)c1` had a logP of 3.91.

As to `CCc1ccc(C)c(C)c1`, the logP is 4.5.

With `CCc1cc(C)ccc1C`, the logP worked out at 4.43.

Turning to `CCCc1ccc(C)cc1`, the logP is 4.6.

Compound `Cc1cccc(C(C)C)c1` registered a logP of 4.5.

`CCCc1cccc(C)c1` returned a logP of 4.67.

For the compound `Cc1ccccc1C(C)C`, the logP stood at 4.38.

Take `CCCCCCCCCc1ccccc1`: the logP stood at 7.11.

In the case of `CC(C)Cc1ccccc1`, the lipophilicity (logP) was 4.68.

For `CCCc1ccccc1C`, the logP is 4.5.

`CCc1ccc(C)cc1C` gave a logP of 4.47.

As for `CCc1cccc(C)c1C`, the logP was found to be 4.34.

As for `CCc1c(C)cccc1C`, the logP is 4.28.

With `CCC(C)c1ccccc1` (stereo not given), the logP is 4.57.

With `CCc1cc(C)cc(C)c1`, the logP is 4.55.

Consider `CCc1ccccc1C`, for which the logP was determined as 3.86.

For `Cc1ccc(C)cc1`, the logP was determined as 3.42.

On to `CCc1cccc(C)c1`, for which the logP is 3.98.

As a reminder, the logP is a log measure of how a compound divides between an organic and an aqueous phase. Read a high logP as higher lipophilicity.

For the origin of these results see the SangsterLogP compilation.
